Source: patent US9241913B2, “Polysialic acid-based N-trimethyl chitosan gel nanoparticles for systemic drug delivery” (Syracuse University, priority 2011, dated 2016)

How the values were obtained:
[1] = test system: MH7A rheumatoid arthritis synovial fibroblast cell line; test: WST-8 cytotoxicity assay; format: cell-based; conditions: MH7A cells, 24 hours incubation, WST-8 absorbance at 450 nm
Method: WST-8 assay (Cayman Chemical Company, Ann Arbor, Mich.) was conducted on the MH7A rheumatoid arthritis synovial fibroblast cell line, following the manufacturer's instructions, to assess the cytotoxicity of the PSA-TMC nanoparticles. NADH produced within the mitochondria reduces WST-8 tetrazolium salt to formazan dye, which can be quantified by absorbance measurements at 450 nm. Cells were seeded into 96-well cell culture plate (2×10^4 cells per well) and cultured for 24 hr at 37° C., 5% CO2. PSA-TMC (0.5:1) was added to yield a series of concentrations from 0.3125 to ˜20 mg/mL, and the cultures were incubated for an additional 24 hours. 10 μL of WST-8 solution were added to each well. After a 90 minute incubation period, absorbance was measured with a Synergy 2 multimode microplate reader (BioTek Instruments, Winooski, Vt.) at 450 nm. The cytotoxicities of TMC TPP and alone were also evaluated following the above procedure. Untreated MH7A synovial fibroblast cultures were used as controls. Relative absorbance versus concentration was plotted for each set of additives, and a four parameter logistic, constructed with Kaleidagraph software, was used to fit the data to determine the IC50 values. Each experiment was repeated independently at least two times.

rheumatoid arthritis = conditions: cited from earlier work
[2] = orally administered, patients; cited from earlier work

SMILES	IC50 [1] [µg/mL]	reduction in the risk of early mortality (rheumatoid arthritis; RA patients treated with methotrexate) [%]	reduction in deaths due to RA related cardiovascular disease (rheumatoid arthritis; individuals prescribed methotrexate) [%]	patients who developed severe fibrosis or cirrhosis (rheumatoid arthritis; over 55 months of treatment, rheumatoid arthritis) [%]	elimination half-lives [2]
O=P(O)(O)OP(=O)(O)OP(=O)(O)O [TPP, sodium tripolyphosphate]	220 ± 40				
CN(Cc1cnc2nc(N)nc(N)c2n1)c1ccc(C(=O)N[C@@H](CCC(=O)O)C(=O)O)cc1 [methotrexate, Methotrexate]		60	70	3	six to fifty-five
